The values below are quoted from earlier work in patent US20250347706A1, “DISPOSABLE CARTRIDGE FOR CLASSIFICATION OF ANTICOAGULANT AND METHOD OF USE” (Haemonetics Corporation, priority 2023, published 2025).

The conditions of this data set: for half-life compared with dabigatran: in vivo.

Take `COc1ccc(-n2nc(C(N)=O)c3c2C(=O)N(c2ccc(N4CCCCC4=O)cc2)CC3)cc1` [apixaban]: the “half-life compared with dabigatran” value is recorded as “shorter half-lives than dabigatran”. Further, the increased half-life entry (patients with severe renal impairment compared to healthy volunteers (Dager et al.)) was “up to 44%”.
`O=C(NC[C@H]1CN(c2ccc(N3CCOCC3=O)cc2)C(=O)O1)c1ccc(Cl)s1` [rivaroxaban]: the “half-life compared with dabigatran” value is “shorter half-lives than dabigatran”.
As for dabigatran, the half-life (lengthened in patients with renal dysfunction, Pradaxa product information) was 12 to 17 h.
